{"source": "BindingDB's records for patent US20250304563", "about": "(Orum Therapeutics, 2025)", "target": "T1, Isoform Truncated 1 of E3 ubiquitin-protein ligase CBL-B [36-427] (Homo sapiens, UniProt Q13191)", "T1 construct": "36-427", "assay": "Binding Affinity of Example 1 Compounds to Cbl-b Protein", "method": "Compounds were assessed for binding activity to Cbl-b by their ability to compete with and displace a probe comprised of BODIPY-FL fluorophore conjugated to a Cbl-b inhibitor (see Example 54 in WO2020264398). In the assay, a 36-427 aa truncated form of Cbl-b with an N-terminus Avi-tag was incubated 20 mM HEPES pH 7.5, 150 mM NaCl, 0.01% Triton X-100, 0.1% BSA, 0.5 mM TCEP buffer with streptavidin-terbium (Cisbio). After one hour of incubation at room temperature, 1 uM each of fluorescent probe and compound were combined with the reaction mixture. Compounds with Cbl-b binding activity competitively displace the fluorophore tagged inhibitor thereby disrupting the FRET signal from the terbium-BODIPY-FL complex. The reaction mixtures were incubated for one additional hour at room temperature to allow for competition between inhibitor and candidate compounds to occur. The time resolved FRET (TR-FRET) signal was then read at 520/620 […] ([…]) using a Spectramax M5e plate reader (Molecular Devices) to measure probe displacement. Compounds with Cbl-b binding activity had decreased FRET signal owing to disruption of the terbium-BODIPY-FL FRET complex. Standard methods in PRISM were used to calculate the compound IC50 values from the experimental data.", "data": [{"smiles": "CCSc1cc(C2(Cc3nncn3C)COC2)cc(N2CC3C(C(N)=O)=CC(CN4CCC[C@H](C)C4)=CC3C2=O)n1", "note": "(stereo partly specified) [US20250304563, Compound 145]", "values": [{"measurement": "IC50", "value": "in the range around 12.5 nM"}]}]}
